The text below walks through data of US10647694B2, “Diphenylaminopyrimidine and triazine compound, and pharmaceutical composition and use thereof” (ARROMAX PHARMATECH CO., LTD., priority 2016, dated 2020).

This test has as its target ALK enzyme (Homo sapiens, UniProt Q9UM73). Nature of the test: In-vitro ALK kinase inhibitory activity (HTRF kinEASE TK kit). It is filed as biochemical. Particulars: inhibitory activity for ALK enzyme, read-out: IC50 range. The method, then: Anaplastic Lymphoma Kinase (ALK) Inhibitory Activity The in-vitro kinase assay was performed using the HTRF kinEASE TK kit available from Cisbio. The operation steps are indicated in the instructions of the kit. This method was used to detect the inhibitory effect of the compound to be tested on the activity of ALK enzymes in vitro, including wild-type ALK (Cat.PV3867, Invitrogen), ALK L1196M (Cat. PV6168, Life technologies), and ALK F1174L (Cat. PV6160, Life technologies). The specific operation steps were as follows. […] In addition to the control wells, 4 μL of the diluted compound solution to be tested was added to the reaction wells, and 4 μL of the 2.5% DMSO solution corresponding to the ALK enzyme previously formulated was added to the control wells. (2) 2 μL of a TK-biotin substrate solution previously formulated in a substrate concentration corresponding to the ALK enzyme was added to all reaction wells. (3) 2 μL of a previously prepared enzyme solution of corresponding concentration was added to all the reaction wells except the negative wells, and 2 μL of the 1× kinase buffer corresponding to the enzyme was added to the negative wells to make up the volume. The plate was sealed with a membrane, and incubated for 10 min at room temperature after mixing uniformly, such that the compounds were bond to the enzyme fully. (4) 2 μL of an ATP solution in a concentration corresponding to the ALK enzyme was added to all the reaction wells to initiate the kinase reaction, where the enzyme reaction time by ALK was 60 minutes. (5) An ALK test solution was prepared 5 minutes before the end of the kinase reaction. Streptavidin-XL665 and TK antibody europium cryptate (1:100) solutions for assay having a concentration corresponding to the enzyme were prepared using the detection buffer in the kit. (6) After the completion of the kinase reaction, 5 μl of diluted Streptavidin-XL665 was added to all the reaction wells respectively, and mixed uniformly, and then the diluted TK antibody europium cryptate solution for assay was added immediately. (7) The plate was sealed, mixed uniformly and allowed to react at room temperature for 1 h. The fluorescence signal (excitation at 320 nm, and emission at 665 nm and 615 nm) was detected using the ENVISION instrument (Perkinelmer). The inhibition rate for each well was calculated from the values of the fully active wells and the background signal wells. The values of replicated wells were averaged, and the half-maximal inhibitory activity (IC50) of each compound to be tested was fitted with a professional drawing analysis software PRISM 5.0.

ALK enzyme, sequence (Q9UM73 19-1620 limits assumed): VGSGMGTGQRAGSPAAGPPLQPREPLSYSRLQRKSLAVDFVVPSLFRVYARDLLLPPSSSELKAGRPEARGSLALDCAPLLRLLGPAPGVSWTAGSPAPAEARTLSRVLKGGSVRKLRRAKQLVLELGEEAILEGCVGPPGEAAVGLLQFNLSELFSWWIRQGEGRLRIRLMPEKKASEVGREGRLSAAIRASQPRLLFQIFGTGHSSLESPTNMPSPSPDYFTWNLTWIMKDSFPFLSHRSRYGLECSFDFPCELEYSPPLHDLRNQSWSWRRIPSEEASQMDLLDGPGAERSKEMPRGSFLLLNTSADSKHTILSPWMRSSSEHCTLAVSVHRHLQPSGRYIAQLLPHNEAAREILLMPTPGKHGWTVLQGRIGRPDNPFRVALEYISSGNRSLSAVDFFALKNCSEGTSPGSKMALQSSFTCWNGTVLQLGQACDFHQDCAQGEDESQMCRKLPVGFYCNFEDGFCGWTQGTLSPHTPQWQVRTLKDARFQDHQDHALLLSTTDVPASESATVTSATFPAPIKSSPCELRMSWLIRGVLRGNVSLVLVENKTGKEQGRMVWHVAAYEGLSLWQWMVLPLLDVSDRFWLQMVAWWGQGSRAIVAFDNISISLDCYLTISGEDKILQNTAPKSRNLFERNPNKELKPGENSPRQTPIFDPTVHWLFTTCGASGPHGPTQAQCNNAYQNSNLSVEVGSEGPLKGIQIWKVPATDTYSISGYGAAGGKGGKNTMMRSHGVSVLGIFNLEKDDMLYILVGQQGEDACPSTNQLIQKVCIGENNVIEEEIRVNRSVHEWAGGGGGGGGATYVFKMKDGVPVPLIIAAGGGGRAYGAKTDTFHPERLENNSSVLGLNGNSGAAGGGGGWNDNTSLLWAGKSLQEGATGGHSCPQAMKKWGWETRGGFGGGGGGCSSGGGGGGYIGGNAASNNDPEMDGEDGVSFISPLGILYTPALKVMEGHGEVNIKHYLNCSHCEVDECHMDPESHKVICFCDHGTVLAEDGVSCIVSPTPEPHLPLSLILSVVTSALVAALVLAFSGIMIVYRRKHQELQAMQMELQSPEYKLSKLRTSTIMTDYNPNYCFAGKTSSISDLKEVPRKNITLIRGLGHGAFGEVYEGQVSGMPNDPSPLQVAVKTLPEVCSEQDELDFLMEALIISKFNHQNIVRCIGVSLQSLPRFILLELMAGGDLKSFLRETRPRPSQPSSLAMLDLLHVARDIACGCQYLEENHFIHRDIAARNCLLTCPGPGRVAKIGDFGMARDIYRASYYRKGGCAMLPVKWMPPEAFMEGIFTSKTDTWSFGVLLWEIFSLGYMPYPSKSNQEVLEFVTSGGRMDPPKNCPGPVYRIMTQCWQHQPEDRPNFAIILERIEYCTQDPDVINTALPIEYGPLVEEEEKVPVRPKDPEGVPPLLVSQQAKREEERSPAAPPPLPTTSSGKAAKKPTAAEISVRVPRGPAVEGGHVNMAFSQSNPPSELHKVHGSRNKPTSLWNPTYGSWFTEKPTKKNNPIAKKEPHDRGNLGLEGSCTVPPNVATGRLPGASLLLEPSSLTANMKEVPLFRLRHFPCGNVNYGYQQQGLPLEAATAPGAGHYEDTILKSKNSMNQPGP

`COc1cc(N2CCNCC2)c(C)cc1Nc1ncnc(Nc2ccccc2S(=O)(=O)C(C)C)n1` [Compound I-42, N2-(2-D3-methoxy-4-(piperazin-1-yl)-5-methyl-phenyl)-N4-(2-(isopropylsulfonyl)phenyl)-1,3,5-triazin-2,4-diamine]: the IC50 is 1 to 10 nM.

As to `COc1cc(C2CCNCC2)c(Cl)cc1Nc1ncc(Cl)c(Nc2ccccc2S(=O)(=O)C(C)C)n1` [Compound I-18, 5-chloro-N2-(5-chloro-2-D3-methoxy-4-(piperidin-4-yl)phenyl)-N4-(2-(isopropylsulfonyl)phenyl)pyrimidin-2,4-diamine], the IC50 lay in the range of 1 to 10 nM.

`COc1cc(N2CCC(N3CCN(C)CC3)CC2)ccc1Nc1nc(Nc2ccccc2S(=O)(=O)C(C)C)c2[nH]ccc2n1` [Compound I-25]: the IC50 lay within 10 to 100 nM.

Regarding `COc1cc(C2CCNCC2)c(C)cc1Nc1ncc(C)c(Nc2ccccc2S(=O)(=O)C(C)C)n1` [Compound I-8, N4-(2-(isopropylsulfonyl)phenyl)-N2-(2-D3-methoxy-5-methyl-4-(piperidin-4-yl)phenyl)-5-methylpyrimidin-2,4-diamine], the 50% inhibitory concentration (IC50) was 1 to 10 nM. Consider `COc1cc(N2CCNCC2)c(C)cc1Nc1ncc(Cl)c(Nc2ccccc2S(=O)(=O)C(C)C)n1` [Compound I-17, 5-chloro-N4-(2-(isopropylsulfonyl)phenyl)-N2-(2-D3-methoxy-4-(piperazin-1-yl)-5-methyl-phenyl)pyrimidin-2,4-diamine], for which the IC50 lay in the range of 1 to 10 nM. The result for `C=Cc1cnc(Nc2cc(C)c(C3CCNCC3)cc2OC)nc1Nc1ccccc1S(=O)(=O)C(C)C` [Compound I-12, N4-(2-(isopropylsulfonyl)phenyl)-N2-(2-D3-methoxy-5-methyl-4-(piperidin-4-yl)phenyl)-5-ethenylpyrimidin-2,4-diamine] reads 1 to 10 nM; that for `COc1cc(N2CCC(N3CCOCC3)CC2)ccc1Nc1ncc(Cl)c(Nc2ccccc2S(=O)(=O)C(C)C)n1` [Compound I-35, 5-chloro-N4-(2-(isopropylsulfonyl)phenyl)-N2-(2-D3-methoxy-4-(4-morpholinopiperidin-1-yl)phenyl)pyrimidin-2,4-diamine], 1 to 10 nM. The same measure for `COc1cc(C2CCNCC2)c(C)cc1Nc1ncc(-c2ccccc2)c(Nc2ccccc2S(=O)(=O)C(C)C)n1` [Compound I-11, N4-(2-(isopropylsulfonyl)phenyl)-N2-(2-D3-methoxy-5-methyl-4-(piperidin-4-yl)phenyl)-5-phenylpyrimidin-2,4-diamine]: 10 to 100 nM; for `COc1cc(C2CCNCC2)c(C)cc1Nc1ncc(F)c(Nc2ccccc2S(=O)(=O)C(C)C)n1` [Compound I-2, 5-fluoro-N4-(2-(isopropylsulfonyl)phenyl)-N2-(2-D3-methoxy-5-methyl-4-(piperidin-4-yl)phenyl)pyrimidin-2,4-diamine]: 1 to 10 nM; for `CCOc1cc(C2CCNCC2)ccc1Nc1ncc(Cl)c(Nc2ccccc2S(=O)(=O)C(C)C)n1` [Compound I-20, 5-chloro-N2-(2-D5-ethoxy-4-(piperidin-4-yl)phenyl)-N4-(2-(isopropylsulfonyl)phenyl)pyrimidin-2,4-diamine]: 1 to 10 nM. `C#Cc1cnc(Nc2cc(C)c(C3CCNCC3)cc2OC)nc1Nc1ccccc1S(=O)(=O)C(C)C` [Compound I-13, 5-ethynyl-N4-(2-(isopropylsulfonyl)phenyl)-N2-(2-D3-methoxy-5-methyl-4-(piperidin-4-yl)phenyl)pyrimidin-2,4-diamine]: the 50% inhibitory concentration (IC50) was in the range of 1 to 10 nM. `COc1cc(N2CCC(N3CCN(C)CC3)CC2)ccc1Nc1nc(Nc2ccccc2S(=O)(=O)C(C)C)c2cc[nH]c2n1` [Compound I-24]: the concentration for half-maximal inhibition (IC50) fell in the range of 10 to 100 nM.

Turning to `COc1cc(C2CCNCC2)ccc1Nc1ncc(Cl)c(Nc2ccccc2S(=O)(=O)C(C)C)n1` [Compound I-15, 5-chloro-N2-(2-D3-methoxy-4-(piperidin-4-yl)phenyl)-N4-(2-(isopropylsulfonyl)phenyl)pyrimidin-2,4-diamine], the half-inhibitory concentration (IC50) lay in the range of 1 to 10 nM.
